The values below are quoted from earlier work in patent US10907142B2, “Oligosaccharides comprising an aminooxy group and conjugates thereof” (Genzyme Corporation, priority 2007, dated 2021).

The series relates to skeletal and cardiac muscle glycogen. Particulars: murine model of Pompe disease; compared with recombinant human GAA; conjugate prepared by the method of U.S. Pat. No. 7,001,994.

As to “conjugate of the lysosomal enzyme acid α-glucosidase (GAA) with a a bis-M6P oligosaccharide: GAA coupled with a bis-M6P oligosaccharide by the method of U.S. Pat. No. 7,001,994”, the “reducing skeletal and cardiac muscle glycogen” value is “more effective in reducing skeletal and cardiac muscle glycogen than recombinant human GAA”.
